Data taken from patent US20220296583A1, “COMPOSITIONS AND METHODS FOR TREATMENT OF OVARIAN AND BREAST CANCER” (Board of Regents, The University of Texas System, priority 2021, published 2022).
pIC50: −log10 of the molar value. Like-named read-outs stand apart in the source and are kept apart here.

What was measured:
[1] = test system: BT549; assay: CellTiter-Glo cell viability dose response; format: cell-based; conditions: Homo sapiens, BT-549, 96 h
Method: (§1) Luminescence was measured on a Synergy2 microplate reader (BioTek) after 10 min of shaking. Dose-response experiments were plotted and IC50 values were calculated using nonlinear curve fitting with normalized response and variable slope by GraphPad Prism 8. Drug interaction of the two-drug combination using a constant ratio were processed and a Combination Index (CI) was calculated using CalcuSyn 2.0 (BIOSOFT). CI<1 indicates synergism, CI=1 indicates additive effect and CI>1 indicates antagonism.

[2] = test system: DOV13; assay: CellTiter-Glo cell viability dose response; format: cell-based; conditions: Homo sapiens, DOV13, 96 h
Method: as §1

[3] = test system: HCC5032; assay: CellTiter-Glo cell viability dose response; format: cell-based; conditions: 96 h
Method: as §1

[4] = test system: HMEC16620; assay: CellTiter-Glo cell viability dose response; format: cell-based; conditions: Homo sapiens, 96 h
Method: as §1

[5] = test system: IGROV1; assay: CellTiter-Glo cell viability dose response; format: cell-based; conditions: Homo sapiens, IGROV-1, 96 h
Method: as §1

[6] = test system: MDA-2774; assay: CellTiter-Glo cell viability dose response; format: cell-based; conditions: Homo sapiens, 96 h
Method: as §1

[7] = test system: MDA-MD-231; assay: CellTiter-Glo cell viability dose response; format: cell-based; conditions: Homo sapiens, 96 h
Method: as §1

[8] = test system: NOE72; assay: CellTiter-Glo cell viability dose response; format: cell-based; conditions: 96 h
Method: as §1

[9] = test system: OAW28; assay: CellTiter-Glo cell viability dose response; format: cell-based; conditions: Homo sapiens, OAW-28, 96 h
Method: as §1

[10] = test system: OC316; assay: CellTiter-Glo cell viability dose response; format: cell-based; conditions: Homo sapiens, 96 h
Method: as §1

[11] = test system: OV90; assay: CellTiter-Glo cell viability dose response; format: cell-based; conditions: Homo sapiens, OV-90, 96 h
Method: as §1

[12] = test system: OVCAR3; assay: CellTiter-Glo cell viability dose response; format: cell-based; conditions: Homo sapiens, OVCAR-3, 96 h
Method: as §1

[13] = test system: OVCAR8; assay: CellTiter-Glo cell viability dose response; format: cell-based; conditions: Homo sapiens, OVCAR-8, 96 h
Method: as §1

[14] = test system: SKOv3; assay: CellTiter-Glo cell viability dose response; format: cell-based; conditions: Homo sapiens, SK-OV-3, 96 h
Method: as §1

[15] = test system: SKOv3, OVCAR8, HCC5032, or MDA-MB-231 cells; assay: DNA damage: γ-H2AX staining and comet assay with olaparib; format: cell-based; conditions: SKOv3, OVCAR8, HCC5032, MDA-MB-231
Method: Cells were trypsinized and resuspended at 2×10^5/mL in cold PBS without Ca^2+ and Mg^2+. Cells were mixed with pre-warmed comet agarose at 1:10 (v/v) ratio. 10 uL of cell agarose mixture was plated onto comet slides pre-coated with 75 uL of agarose and chilled at 4° C. for 15 min to set. Cells were lysed in 25 mL of Lysis buffer at 4° C. for 2 hrs and washed with alkaline solution (pH 10). Comet slides were electrophoresed in cold alkaline solution at 20V for 15 min. Slides were rinsed with water and dried in 70% ethanol for 5 min. Slides were then stained with Vista Green DNA dye and viewed using an Olympus epifluorescence microscope with a FITC filter. Images were captured using a 20× objective. […] Experiments were run in triplicate and Olive Tail Moment was measured using CaspLab1.2.3β2 software (CaspLab.com). Olive Tail Moment=Tail DNA %×Tail Length. 50-200 Cells were measured for each treatment and experiments were repeated twice independently to ensure reproducibility.
Cells on 22×22 mm coverslips were fixed in 4% formaldehyde in PBS (Thermo Fisher, J19943-K2) and permeabilized with 0.1% Triton X-100 (Sigma, X100) in PBS for 15 min. Cells were blocked with 5% BSA in PBS for 30 min and then stained with antibody overnight at 4° C., followed by secondary antibody and DAPI for 1 hr. […] After 24-hrs incubation, cells were fixed in 4% formaldehyde in PBS. Cells were stained as described above. […] DNA damage visualized by γ-H2AX staining was evaluated by counting nuclear γ-H2AX puncta in each cell. […] After 8 hrs incubation, cells were fixed in 4% formaldehyde in PBS. Cells were stained as described above. Images were captured using an Olympus IX71 microscope and nuclear γ-H2AX puncta in each cells were counted using with Olympus CellSens Dimension software. HDAC5 (CST20458) and γ-H2AX (CST2577) antibodies were purchased from Cell Signaling Technology. Experiments were repeated twice independently to ensure reproducibility and 50-200 cells were counted for each treatment.

[16] = test system: MEF2 promoter activity; assay: MEF2 luciferase reporter assay; format: cell-based; conditions: ovarian and breast cancer cell lines; time- and dose-dependent
Method: (§2) To identify the mechanism(s) by which SIK2 inhibition decreases DNA DBS repair, it was tested whether SIK2 inhibitors decrease the phosphorylation of class IIa HDACs, which control its nuclear cytoplasmic shuttling and consequently its association with DNA. […] Next, it was investigated whether SIK2 inhibitors increase nuclear localization of HDAC5. SIK2 inhibition increased nuclear localization of HDAC5 judged by increasing nuclear florescence intensity (FIG. 7B and FIG. 8A) and the nuclear fraction of HDAC5 expression (FIG. 8B). […] Therefore, it was hypothesized that SIK2 inhibition may block MEF transcription factor activity. […] Next, it was examined whether SIK2 regulation of MEF2 activity was HDAC4/5-dependent, increasing its binding to MEF2D protein. […] These observations are consistent with the hypothesis that SIK2 inhibition increases nuclear localization of HDAC4/5, blocking MEF2 transcription (FIG. 8E).

[17] = test system: SKOv3 xenograft; assay: SKOv3 subcutaneous xenograft, SIK2 inhibitor and olaparib; format: in vivo, mice; conditions: SKOv3 s.c.; oral, five times per week, 4 weeks
[18] = test system: MDA-MB-231 xenograft; assay: MDA-MB-231 mammary fat pad xenograft, Compound B and olaparib; format: in vivo, mice; conditions: 50 mg/kg, oral, 5 weeks
Method: Forty female nu/nu mice were injected with 0.8×10^6 MDA-MB-231 cells into their fourth mammary fat pads. […] Tumors were measured every week as noted above (SKOv3 xenograft models).

[19] = test system: SKOv3 cells; conditions: RNA-seq
[20] = test system: SKOv3 xenograft; assay: SKOv3 subcutaneous xenograft, Compound B, carboplatin and paclitaxel; format: in vivo, mice; conditions: SKOv3 s.c.; 6 weeks; Compound B 40 mg/kg
Method: After treatment as indicated in (A) for three weeks, mice were weighed, and intraperitoneal nodules were excised and weighed. […] Mice were treated with single, double, or triple agents for 6 weeks. Tumor was measured once a week until the tumor burden in control group reached maximum allowance. The graphs indicate the mean±standard deviation. Statistical significance is indicated by *p<0.05, **p<0.01, and ***p<0.0001.
Six-week-old female athymic nu/nu mice were purchased from Envigo. Experiments were reviewed and all procedures were performed according to an animal protocol approved by the Institutional Animal Care and Use Committee of UT MD Anderson Cancer Center. […] Carboplatin was administrated i.p. once a week at a dose of 25 mg/kg. […] Carboplatin was treated at a dose of 30 mg/kg once a week for six weeks. […] At end of six weeks, the mice were sacrificed by CO2. The mice were dissected immediately after death and the tumors were collected and weighed.
OVCAR8 cells were injected intraperitoneally (ip) into nu/nu mice. Treatment started 7 days post injection. […] At the conclusion of the treatment, the mice were sacrificed, and the tumor was dissected and weighed (FIG. 23A). […] The tumor volume was measured at indicated time points (FIG. 23D).

[21] = test system: SIK2-expressed SKOV3 cells; assay: Cell viability assessment of SKOV3; format: cell-based
[22] = test system: MAXF Hs 578T
[23] = test system: MAXF MDA-MB-231
[24] = test system: A2780-CP20; assay: Cell viability, cisplatin-resistant sub-line; format: cell-based; conditions: 96 h
Method: (§3) Cisplatin-resistant A2780-CP20 and cisplatin-sensitive A27801 PAR sub-lines were plated at a density of 2000/well in 96-well plates, then treated with different concentrations of carboplatin for 96 h as indicated. Cell viability was measured with a bioluminescence assay and the IC50 was calculated. […] (C, D).
(§4) Cells were seeded in 6 replicates in black-walled and clear-bottomed 96-well plates and incubated overnight. […] The CellTiter-Glo luminescent cell viability assay (Promega) was used to evaluate the effect of treatment on cancer growth. This experiment was performed several times to optimize the concentration. […] GraphPad Prism 8 was used to generate growth curves and calculated IC50. CalcuSyn was used to evaluate additive or synergistic interactions, a combination Index (CI value).
(§5) Platinum resistance is commonly seen in ovarian cancer patients with recurrent disease. There is currently no standard chemotherapy for platinum-resistant recurrence. Targeting DNA damage and repair is an attractive therapeutic approach in platinum-resistant ovarian cancer.

[25] = test system: A2780-PAR; assay: Cell viability, cisplatin-sensitive sub-line; format: cell-based; conditions: 96 h
Method: as §3, §4, §5

[26] = test system: HDAC4 (Ser246)/HDAC5 (Ser256)/HDAC7 (Ser155); assay: Western analysis of HDAC4/5/7 phosphorylation; format: cell-based; conditions: 4 μM, 24 hrs; nearly all the cell lines tested
Method: as §2
Cells were incubated with and without treatment for the intervals indicated and then cells were incubated in lysis buffer (50 mM Hepes, pH 7.0, 150 mM NaCl, 1.5 mM MgCl2, 1 mM EGTA, 10, 10% glycerol, 1% Triton X-100, 50 mM NaF, 1 mM Na3VO4 1 mM PMSF, 10 μg/mL leupeptin and10 μg/mL aprotinin) on ice for 30 min. […] The protein concentration was assessed using a bicinchoninic acid (BCA) protein assay (Thermo Scientific, 23228). […]

| SMILES | pIC50 [1] | pIC50 [2] | pIC50 [3] | pIC50 [4] | pIC50 [5] | pIC50 [6] | pIC50 [7] | pIC50 [8] | pIC50 [9] | pIC50 [10] | pIC50 [11] | pIC50 [12] | pIC50 [13] | pIC50 [14] | levels of γ-H2AX and tailed DNA [15] | tumor growth (tumor volume) [20] | other results |
| --- | --- | --- | --- | --- | --- | --- | --- | --- | --- | --- | --- | --- | --- | --- | --- | --- | --- |
| O=C(c1cc(Cc2n[nH]c(=O)c3ccccc23)ccc1F)N1CCN(C(=O)C2CC2)CC1 [Olaparib, olaparib] | 4.86 | 4.49 | 4.84 | 5.92 | 5.55 | 5.20 | 5.35 | 5.19 | 5.44 | 5.31 | 5.08 | 5.42 | 5.19 | 4.26 | modestly increased |  | MEF2 promoter activity [16]: did not; tumor growth [17]: significantly inhibited tumor growth; tumor burden / tumor volume [18]: remained unchanged; numbers of transcripts up or down-regulated by ≥2-fold [19]: 3 |
| CC(=O)O[C@H]1C(=O)[C@@]2(C)[C@H]([C@H](OC(=O)c3ccccc3)[C@]3(O)C[C@H](OC(=O)[C@H](O)[C@@H](NC(=O)c4ccccc4)c4ccccc4)C(C)=C1C3(C)C)[C@]1(OC(C)=O)CO[C@@H]1C[C@@H]2O [Paclitaxel, paclitaxel] |  |  |  |  |  |  |  |  |  |  |  |  |  |  |  | significantly inhibited tumor growth | pIC50 ([21]; Homo sapiens, SK-OV-3, SK-OV-3, Table 7, paclitaxel combinations): 6.90; pIC50 ([21]; Homo sapiens, SK-OV-3, SKOV3, Table 5, FIG. 25): 7.41; pIC50 ([21]; Homo sapiens, SK-OV-3, SKOV3, Table 6, FIG. 26): 6.90; Test/Control (%) at drug Concentration [μM] ([22]; Table 14, 1.0E+00 μM): 38%; Test/Control (%) at drug Concentration [μM] ([22]; Table 14, 1.0E−01 μM): 44%; Test/Control (%) at drug Concentration [μM] ([22]; Table 14, 1.0E−02 μM): 89%; Test/Control (%) at drug Concentration [μM] ([22]; Table 14, 3.2E−01 μM): 42%; Test/Control (%) at drug Concentration [μM] ([22]; Table 14, 3.2E−02 μM): 52%; Test/Control (%) at drug Concentration [μM] ([23]; Table 14, 1.0E+00 μM): 10%; Test/Control (%) at drug Concentration [μM] ([23]; Table 14, 1.0E−01 μM): 17%; Test/Control (%) at drug Concentration [μM] ([23]; Table 14, 1.0E−02 μM): 45%; Test/Control (%) at drug Concentration [μM] ([23]; Table 14, 1.0E−03 μM): 110%; Test/Control (%) at drug Concentration [μM] ([23]; Table 14, 3.2E−01 μM): 14%; Test/Control (%) at drug Concentration [μM] ([23]; Table 14, 3.2E−02 μM): 24% |
| N.N.O=C([O-])C1(C(=O)[O-])CCC1.[Pt+2] [carboplatin] |  |  |  |  |  |  |  |  |  |  |  |  |  |  |  | significantly inhibited tumor growth | pIC50 [24]: 4.46; pIC50 [25]: 5.96 |
| N.N.[Cl][Pt][Cl] [Cisplatin, cisplatin] |  |  |  |  |  |  |  |  |  |  |  |  |  |  |  |  | pIC50 ([21]; SK-OV-3, Table 9, cisplatin combinations): 4.77; pIC50 ([21]; SKOV3, Table 6, FIG. 26, top locked at 100): 4.77 |
| COc1c(F)cc(F)cc1-c1c[nH]c2ncc(-c3cnn(C4CCNCC4)c3)cc12 [Compound A, 3-(3,5-difluoro-2-methoxyphenyl)-5-(1-(piperidin-4-yl)-1H-pyrazol-4-yl)-1H-pyrrolo[2,3-b]pyridine] | 5.69 | 5.55 | 5.65 | 5.44 | 5.96 | 5.97 | 5.63 | 5.24 | 5.77 | 5.90 | 5.41 | 5.55 | 5.86 | 5.91 | modestly increased |  | phosphorylation of HDAC4/HDAC5/HDAC7 [26]: significantly decreased |
